Measurements published in US6737383B1, “Herbicidal oxadiazolidines” (priority 1999, dated 2004).

Legend:
[1] = system: velvetleaf; experiment: Test B pre/postemergence velvetleaf; format: in vivo, Abutilon theophrasti
Summary of the method: (§1)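 Herbicidal effect was estimated by eye on a ten-point control scale after plants spent twelve to sixteen days in a greenhouse following soil or foliar treatment. Foliar sprays targeted plants at one to four leaves; all doses were formulated in a non-phytotoxic solvent with surfactant.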

[2] = system: blackgrass; experiment: Test B pre/postemergence blackgrass; format: in vivo, Alopecurus myosuroides
Summary of the method: as §1

[3] = system: purple nutsedge; experiment: Test B pre/postemergence purple nutsedge; format: in vivo, Cyperus rotundus
Summary of the method: as §1

[4] = system: surinam grass; experiment: Test B pre/postemergence surinam grass; format: in vivo, Brachiaria decumbens
Summary of the method: as §1

[5] = system: pigweed; experiment: Test B pre/postemergence pigweed; format: in vivo, Amaranthus retroflexus
Summary of the method: as §1

[6] = system: rape; experiment: Test B pre/postemergence rape; format: in vivo, Brassica napus
Summary of the method: as §1

[7] = system: wheat; experiment: Test B pre/postemergence wheat; format: in vivo, Triticum aestivum
Summary of the method: as §1

[8] = system: rice; experiment: Test B flood test rice; format: in vivo, Oryza sativa
Summary of the method: (§2)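 Each value is a visual injury score relative to controls, with 10 meaning complete control and 0 no effect. Evaluation took place twelve to sixteen days after the 2-leaf-stage plants were treated and kept in the greenhouse.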

[9] = system: wild oat; experiment: Test B pre/postemergence wild oat; format: in vivo, Avena fatua
Summary of the method: as §1

[10] = system: corn; experiment: Test B pre/postemergence corn; format: in vivo, Zea mays
Summary of the method: as §1

[11] = system: soybean; experiment: Test B pre/postemergence soybean; format: in vivo, Glycine max
Summary of the method: as §1

[12] = system: bamyardgrass; experiment: Test B flood test barnyardgrass; format: in vivo, Echinochloa crus-galli
Summary of the method: as §2

[13] = system: morningglory; experiment: Test B pre/postemergence morningglory; format: in vivo, Ipomoea hederacea
Summary of the method: as §1

[14] = system: giant foxtail; experiment: Test B pre/postemergence giant foxtail; format: in vivo, Setaria faberii
Summary of the method: as §1

[15] = system: smallflower flatsedge; experiment: Test B flood test smallflower flatsedge; format: in vivo, Cyperus difformis
Summary of the method: as §2

[16] = system: duck salad; experiment: Test B flood test duck salad; format: in vivo, Heteranthera limosa
Summary of the method: as §2

[17] = system: sugar beet; experiment: Test B pre/postemergence sugar beet; format: in vivo, Beta vulgaris
Summary of the method: as §1

[18] = system: cocklebur; experiment: Test B pre/postemergence cocklebur; format: in vivo, Xanthium strumarium
Summary of the method: as §1

[19] = system: crabgrass; experiment: Test B pre/postemergence crabgrass; format: in vivo, Digitaria sanguinalis
Summary of the method: as §1

[20] = Postemergence, Rate 62 g/ha, scale 0 to 10, 0 is no effect, 10 is complete control
[21] = Postemergence, Rate 125 g/ha, scale of 0 to 10 where 0 is no effect and 10 is complete control
[22] = Postemergence, Rate 250 g/ha, scale of 0 to 10, 0 is no effect, 10 is complete control
[23] = Preemergence, Rate 62 g/ha, scale of 0 to 10 where 0 is no effect and 10 is complete control
[24] = Preemergence, Rate 125 g/ha, scale of 0 to 10 where 0 is no effect and 10 is complete control
[25] = Preemergence, Rate 250 g/ha, scale 0 to 10 (0 no effect, 10 complete control)
[26] = Preemergence, Rate 500 g/ha, scale of 0 to 10 where 0 is no effect and 10 is complete control
[27] = Postemergence, Rate 500 g/ha, scale of 0 to 10 where 0 is no effect and 10 is complete control
[28] = Rate 62 g/ha, flood test species, Pre-emergence, visual evaluation after twelve to sixteen days
[29] = Rate 125 g/ha, under heading Pre-emergence, flood test species, visual evaluation after twelve to sixteen days
[30] = Rate 250 g/ha, Pre-emergence (flood test species), scale 0 to 10, 0 is no effect, 10 is complete control
[31] = Rate 500 g/ha, Pre-emergence section of Table B, 0 to 10 scale (0 no effect, 10 complete control)

CC(C)N(C(=O)n1oc(=O)n(CC(=O)C2CC2)c1=O)c1ccc(Cl)cc1 [Compound 639]
7: Plant response rating, B. signalgrass [4, 26] | Morningglory plant response rating [13, 22] | Plant response rating, Morningglory [13, 27] | Plant response rating, Giant foxtail [14, 27] | Giant foxtail plant response rating [14, 23] | Crabgrass plant response rating [19, 23] | Crabgrass plant response rating [19, 24]
1: Plant response rating, Wild oats [9, 20] | Plant response rating, Wild oats [9, 21] | Wild oats plant response rating [9, 22]
4: Plant response rating, Redroot pigweed [5, 21] | Redroot pigweed plant response rating [5, 22]
5: Plant response rating, B. signalgrass [4, 25]
6: Plant response rating, Blackgrass [2, 27] | Giant foxtail plant response rating [14, 22] | Plant response rating, Sugarbeets [17, 26]
3: Plant response rating, Velvetleaf [1, 26] | Plant response rating, Redroot pigweed [5, 20] | Plant response rating, Rape [6, 27] | Plant response rating, Rape [6, 25] | Plant response rating, Wild oats [9, 26] | Soybean plant response rating [11, 22] | Plant response rating, Soybean [11, 26] | Plant response rating, Morningglory [13, 21]
8: Plant response rating, Crabgrass [19, 27]
0: Plant response rating, Velvetleaf [1, 20] | Plant response rating, Velvetleaf [1, 21] | Velvetleaf plant response rating [1, 22] | Velvetleaf plant response rating [1, 23] | Velvetleaf plant response rating [1, 24] | Plant response rating, Velvetleaf [1, 25] | Plant response rating, Blackgrass [2, 20] | Plant response rating, Blackgrass [2, 21] | Blackgrass plant response rating [2, 23] | Blackgrass plant response rating [2, 24] | Plant response rating, Nutsedge [3, 20] | Plant response rating, Nutsedge [3, 21] | Nutsedge plant response rating [3, 23] | Nutsedge plant response rating [3, 24] | Plant response rating, Nutsedge [3, 25] | Plant response rating, Nutsedge [3, 26] | Plant response rating, B. signalgrass [4, 20] | Plant response rating, B. signalgrass [4, 21] | B. signalgrass plant response rating [4, 22] | B. signalgrass plant response rating [4, 23] | B. signalgrass plant response rating [4, 24] | Redroot pigweed plant response rating [5, 23] | Redroot pigweed plant response rating [5, 24] | Plant response rating, Rape [6, 20] | Plant response rating, Rape [6, 21] | Rape plant response rating [6, 22] | Rape plant response rating [6, 23] | Rape plant response rating [6, 24] | Plant response rating, Wheat [7, 20] | Plant response rating, Wheat [7, 21] | Wheat plant response rating [7, 22] | Wheat plant response rating [7, 23] | Wheat plant response rating [7, 24] | Plant response rating, Wheat [7, 25] | Plant response rating, Wheat [7, 26] | Plant response rating, Rice (0 to 10 scale, 0 is no effect, 10 is complete control) [8, 28] | Rice plant response rating (0 to 10 scale, 0 is no effect, 10 is complete control) [8, 29] | Rice plant response rating [8, 30] | Rice plant response rating [8, 31] | Wild oats plant response rating [9, 23] | Wild oats plant response rating [9, 24] | Plant response rating, Wild oats [9, 25] | Plant response rating, Corn [10, 20] | Plant response rating, Corn [10, 21] | Corn plant response rating [10, 22] | Plant response rating, Corn [10, 27] | Corn plant response rating [10, 23] | Corn plant response rating [10, 24] | Plant response rating, Corn [10, 25] | Plant response rating, Corn [10, 26] | Plant response rating, Soybean [11, 20] | Plant response rating, Soybean [11, 21] | Soybean plant response rating [11, 23] | Soybean plant response rating [11, 24] | Plant response rating, Soybean [11, 25] | Plant response rating, Barnyardgrass (0 to 10 scale, 0 is no effect, 10 is complete control) [12, 28] | Barnyardgrass plant response rating (0 to 10 scale, 0 is no effect, 10 is complete control) [12, 29] | Barnyardgrass plant response rating [12, 30] | Barnyardgrass plant response rating [12, 31] | Plant response rating, Morningglory [13, 20] | Morningglory plant response rating [13, 23] | Morningglory plant response rating [13, 24] | Plant response rating, Morningglory [13, 25] | Plant response rating, Morningglory [13, 26] | Plant response rating, Giant foxtail [14, 20] | Plant response rating, Giant foxtail [14, 21] | Plant response rating, S. Flatsedge (0 to 10 scale, 0 is no effect, 10 is complete control) [15, 28] | S. Flatsedge plant response rating (0 to 10 scale, 0 is no effect, 10 is complete control) [15, 29] | S. Flatsedge plant response rating [15, 30] | S. Flatsedge plant response rating [15, 31] | Plant response rating, Ducksalad (0 to 10 scale, 0 is no effect, 10 is complete control) [16, 28] | Ducksalad plant response rating (0 to 10 scale, 0 is no effect, 10 is complete control) [16, 29] | Ducksalad plant response rating [16, 30] | Ducksalad plant response rating [16, 31] | Plant response rating, Sugarbeets [17, 20] | Plant response rating, Sugarbeets [17, 21] | Sugarbeets plant response rating [17, 22] | Sugarbeets plant response rating [17, 23] | Sugarbeets plant response rating [17, 24] | Plant response rating, Sugarbeets [17, 25] | Plant response rating, Cocklebur [18, 20] | Plant response rating, Cocklebur [18, 21] | Cocklebur plant response rating [18, 23] | Cocklebur plant response rating [18, 24] | Plant response rating, Cocklebur [18, 25] | Plant response rating, Crabgrass [19, 20]
9: Giant foxtail plant response rating [14, 24] | Plant response rating, Giant foxtail [14, 25] | Plant response rating, Giant foxtail [14, 26] | Plant response rating, Crabgrass [19, 25] | Plant response rating, Crabgrass [19, 26]
2: Blackgrass plant response rating [2, 22] | Plant response rating, Blackgrass [2, 25] | Plant response rating, Blackgrass [2, 26] | Plant response rating, B. signalgrass [4, 27] | Plant response rating, Redroot pigweed [5, 25] | Cocklebur plant response rating [18, 22] | Plant response rating, Cocklebur [18, 27] | Plant response rating, Cocklebur [18, 26] | Crabgrass plant response rating [19, 22]
10: Plant response rating, Redroot pigweed [5, 26] | Plant response rating, Rape [6, 26]
